According to a melting point compilation (Tetko et al.; mined from patent text by program, amines drawn as free bases though some values may be those of a salt):

Point of comparison: `CC1CCN(C2C3=CC(OC3=O)C3C(CC4(C)OC4C2O)OC(=O)C3C)CC1` (stereo unspecified), melting point 210 °C. Against it:
- COc1cc(C(C)C)c(NC(=O)CN2CCN(CCSc3nc4cccc(C(F)(F)F)c4o3)CC2)c(C(C)C)c1 — lower, 122 to 123 °C
- Cc1c(-c2ccccc2)oc2c(C(=O)NCCCN3CCC(n4c(=O)[nH]c5ccccc54)CC3)cccc2c1=O — higher, 238 to 241 °C
- CCCCN(CC)CC(=O)OC1CC2(C)C(C(C)=O)CCC2C2CCC3CC(O)CCC3(C)C12 (stereo unspecified) — lower, 111 to 112 °C
- O=c1[nH]c2scnc2c2c(O)cccc12 — higher, > 250 °C
- Cc1cc(Oc2cccc(C(F)(F)F)c2)c(C)cc1N=CNC#N — lower, 138 to 140 °C
- CCOCCc1c(N=[N+]=[N-])nc(NC(=O)NC)nc1-c1ccccc1 — lower, 128 to 130 °C
- CCCN(CCC)C(=O)c1cc(C(=O)N[C@@H](Cc2cc(F)cc(F)c2)[C@H](O)CNC2(c3cc(CN(C)C)ccn3)CC2)cc(-c2ncco2)c1 — lower, 70 to 72 °C
- O=[N+]([O-])C=C1CN=C(c2ccccc2F)c2cc(Cl)ccc2N1 — lower, 170 to 172 °C
- COc1ccc(-c2csc(C(=O)O)n2)cc1OC1CC2CCC1C2 (stereo unspecified) — lower, 112 to 113 °C
- CCOC1CC(n2cc(CC)c(=O)[nH]c2=O)OC1CNC(=O)C(C)Oc1ccc(Cl)cc1Cl (mixture of isomers) — lower, 121 to 124 °C
- N#Cc1ccc(-c2ccc(C(=O)O)cn2)cc1 — higher, > 260 °C
- CCNc1nc2cc(COc3cccc(C=O)c3)ccc2o1 — lower, 85 to 90 °C
- COc1ccc(S(=O)(=O)N2CCc3cccc(-c4ccc(F)nc4)c32)cc1 — lower, 140 to 142 °C
- N#Cc1ccc(S)c(C#N)c1 — lower, 180 °C
- OCC(O)Cc1nccn1CCCCc1ccc(OCc2coc(/C=C/c3c(F)cccc3F)n2)cc1 (stereo unspecified) — lower, 123 to 125 °C
- C=Cc1cnc([N+](=O)[O-])n1CC — lower, 45 to 47 °C
- CNC(=S)NCCCCc1c[nH]c(NC(=N)N)n1 — lower, 179 to 184 °C
- CC(=O)n1nc(-c2nc3ccccc3o2)oc1=O — higher, 231 to 232 °C
- CCNC=C(C(=O)C=Cc1cccnc1)C(=O)OC — lower, 78 to 80 °C
- CC(C)(C)c1cc(C(=O)Nc2nc(C(=O)O)cs2)cc(C(C)(C)C)c1O — higher, 291 to 293 °C
- COC(=O)[C@H](Cc1ccc(OS(=O)(=O)C(F)(F)F)cc1)NC(=O)OC(C)(C)C — lower, 47 to 48 °C
- COc1ccc(-c2ccc(N)nn2)cc1OC(C)C — lower, 184 °C
- CC(C)[C@H](C[C@H](N=[N+]=[N-])[C@@H]1C[C@@H](C(C)C)C(=O)O1)C(=O)O — lower, 56 to 58 °C
- Nc1c(CC(=O)O)cccc1C(=O)c1ccc(F)cc1 — lower, 136 to 137 °C
- CSc1nc2cc(C(F)(F)F)ccc2n1N — lower, 170 to 173 °C
- O=C1N(C(c2ccccc2)c2ccccc2)c2c(F)cccc2C12COc1cc3c(cc12)CCO3 (stereo unspecified) — lower, 183 to 184 °C
- Nc1ccc(SCc2nc(Cl)ccc2Cl)cc1 — lower, 110 to 111 °C
- CC(C)c1cccc(C(C)C)c1NC(=O)CN1CN(c2ccccc2)C2(CCCCC2)C1=O — higher, 251 to 253 °C
- Cc1cc(C#N)c(C)c(C(=O)Nc2ccc(F)c(C)n2)n1 — lower, 201 °C
- O=C(Nc1n[nH]c2nc(Oc3ccc(F)cc3F)ncc12)OCc1ccccc1 — higher, 270 to 272 °C
- CC(C)CC(=O)OC1c2ccccc2C(=O)N1c1ccc2ccc(Cl)nc2n1 (stereo unspecified) — lower, 154 °C
- Nc1cccc2c1C1CCCCN1C2=O (stereo unspecified) — lower, 183 °C
- CC(=O)Nc1ccc(I)cc1F — lower, 152 to 154 °C
- O=C(NCCCCOc1ccc(-n2ccnc2)cc1)c1ccc(I)cc1 — lower, 143 to 145 °C
- CSc1cc(-c2ccccc2)nc(-c2cccc(CCl)c2)c1 — lower, 56.8 °C
- Cc1ccccc1CC(=O)c1cccc(I)c1 — lower, 115 to 117 °C
- COC(=O)c1c(Cl)cc(Cl)cc1NC(=O)CSc1ccc(NC(=O)c2cccnc2)cc1 — lower, 156 to 159 °C
- CCOCC1OC(n2cnc3c(NCc4cccc(I)c4)nc(Cl)nc32)C(O)C1O (stereo unspecified) — lower, 80 to 82 °C
- C=C(C(=O)c1ccc(OC)c(Cl)c1Cl)C(C)C — lower, 46 to 51 °C
- CCCCCCCCCCCc1[nH]c2cc(C(=O)OC)ccc2c1C=O — lower, 147 to 149 °C
- Cc1nccn1CC1CCc2c(c3ccccc3n2C)/C1=N/OC(=O)c1cccc(C#N)c1 (stereo unspecified) — lower, 160 to 166 °C
- CNC(=O)Nc1ccc(Oc2ccc3sncc3c2)cc1 — lower, 178 °C
- CC(=O)Oc1c(C)ccc2c1N=CC1CCCN1C2=O (stereo unspecified) — lower, 142 to 145 °C
- COc1cc(C=O)cc(OC)c1OCCO — lower, 69 to 70 °C
- CCCN(CC1CC1)c1nc(C)[nH]c2c(-c3ccc(Cl)cc3Cl)nc(C)c1-2 — lower, 66 to 68 °C
- C=C1C(=O)N(C)CCC1(CC(=O)OC)c1cccc(OC)c1 (stereo unspecified) — lower, 85 to 86 °C
- COc1ccc(CC(=O)c2ccc(OCc3ccccc3)cc2O)cc1 — lower, 97 to 98 °C
- CN(C(=O)CN(C(=O)CNC(=O)Nc1cccc(N2CCCCC2)c1)c1ccccc1)c1ccccc1 — higher, 235 °C
- C1=C(c2c[nH]c3ccccc23)CCN(CC2COc3ccc4ncccc4c3O2)C1 (stereo unspecified) — higher, 217 °C
- COC(=O)c1cccc(NC(=O)C=Cc2ccc(OC)c(OC)c2)c1N — lower, 144 to 146 °C
- Cc1cccc(C)c1NC(=O)c1ccc(C#N)cc1 — lower, 185 to 187 °C
- C=CCC(Oc1cccc(C)c1C)C1=NCCN1 (stereo unspecified) — lower, 72 to 74 °C
- CCOC(=O)C(Br)C(=O)Nc1ccc(Cl)cc1 (stereo unspecified) — lower, 117 to 119 °C
- CCc1nc2c(-c3ccc(OC(F)(F)F)cc3Cl)ncnc2n1C(C1CC1)C1CC1 — lower, 119 to 120 °C
- COC1=C(c2csc(NC(=O)c3cc4ccccc4[nH]3)n2)C=CC(Cl)(OC)C1 (stereo unspecified) — higher, 293 °C
- CNC(=S)N1CCN=C1COc1cccc(C)c1C — lower, 100 °C
- O=[N+]([O-])c1cccc(C(c2cccc([N+](=O)[O-])c2)(C(F)(F)F)C(F)(F)F)c1 — lower, 118 to 119 °C
- COCCNC(=O)c1cc2c(nc(C)n2C)c2c1CCC(c1ccccc1)O2 (stereo unspecified) — higher, 254 to 256 °C
- CC1=CC(c2ccccc2)C(c2cccs2)=NN1 (stereo unspecified) — lower, 150 °C
- COC(=O)C[C@H]1C[C@@H](CCc2c(-c3ccc(F)cc3)c(-c3ccc(F)cc3)cn2C(C)C)OC(C)(C)O1 — lower, 55 to 57 °C
- C=Cc1c(N)cc(Cl)nc1C(=O)OC — lower, 53 to 54 °C
- CNC(=O)ON=C1COCCS1 — lower, 105 to 106 °C
- CCN1CCCN(c2c(C)cccc2Cl)C1=S — lower, 88 to 90 °C
- NC(=O)C(Nc1ccccc1[N+](=O)[O-])c1c(Cl)cccc1Cl (stereo unspecified) — lower, 182 °C
- CCOC(=O)c1cn(-c2cc(N)c(F)cc2F)c2c(C)c(F)c(F)c(N)c2c1=O — lower, 134 to 135 °C
- COc1cccc(CN2CCCc3cc(O)c(OC)cc3C2)c1 — lower, 114 to 115 °C
- Cc1ccnc(-c2ccc(C)c(-c3ccccc3)n2)n1 — lower, 105 °C
- NS(=O)(=O)c1ccc(-n2nc(C(F)(F)F)cc2-c2ccc(-c3cscn3)c(C(F)(F)F)c2)cc1F — lower, 140 to 142 °C
- COc1cc(C(=O)N2CCC(CCN3CCC(C(=O)c4nc5ccccc5n4Cc4ccc(F)cc4)CC3)(c3ccc(Cl)c(Cl)c3)C2)cc(OC)c1OC (stereo unspecified) — lower, 87 to 90 °C
- CCCCCCCCCCCC=C1NN=CN1N — lower, 40 to 43 °C
- CCCc1c(OCCCOc2ccc3c(c2CCC)OC(C)(CCC(=O)O)CC3=O)ccc(C(C)=O)c1O (stereo unspecified) — lower, 80 to 83 °C
- NC(=O)COCC(Cc1ccccc1)NC(=O)[C@@H]1CCCN1C(=O)OCc1ccccc1 (stereo partly specified) — lower, 137 to 142 °C
- CCCCCCSC[C@H](N[C@@H](C)C(=O)N1CCC[C@H]1C(=O)O)C(=O)O — lower, 109 to 112 °C
- COC(=O)NC(C)(C)c1ccc(CC#N)cc1 — lower, 88 to 90 °C
- CON=C(c1cc(C)no1)c1ccccc1COc1cc(C)ccc1C — lower, 107 to 108 °C
- CCCC(=O)Nc1cccc(-c2ccc3nnc(C)n3n2)c1 — lower, 195 to 198 °C
- COc1cc(C(=O)c2ccccc2F)ccc1OCc1ccccc1 — lower, 118 to 120 °C
- COc1nscc1C(=O)O — lower, 182 to 185 °C
- CCCCCCCCOC(=O)C(=C1SCCCS1)c1cccc(C(F)(F)F)c1 — lower, 49 °C
- O=C1NCCC[C@@H]1NS(=O)(=O)c1ccc(C(F)(F)F)cc1 — lower, 181 to 183 °C
- COc1ccc(C(=O)Nc2cccc(C(=O)O)c2)c2c1OCCO2 — higher, 283 to 284 °C
- CCN1c2ncc(CSc3ncnc4[nH]ncc34)cc2C(=O)N(C)c2ccc(Cl)nc21 — lower, 128 to 130 °C
- CCOC(=O)C1=C(C(=O)O)CC(C(=O)O)([N+](=O)[O-])C=C1 (stereo unspecified) — lower, 189 to 191 °C
- CCCCCCCCCCCCC(OC(C)=O)C1=CC(=O)OC1O (stereo unspecified) — lower, 67 to 68 °C
- COc1ccc2c(c1)CCCC2(N)CO (stereo unspecified) — lower, 89 to 95.6 °C
- O=C(CCc1ccccc1)CN1C(=O)CC1S(=O)Cc1ccccc1 (stereo unspecified) — lower, 110 to 111 °C
- CCONC(CC)=C1C(=O)OC(CC)=C(Br)C1=O — lower, 76.5 to 77.5 °C
- COc1ccc2c(C(=O)Nc3ccc(F)c(C(F)(F)F)c3)nsc2c1 — lower, 157 °C
- O=C1C2=C(C(=O)N1CCO)c1ccccc1CC2 — lower, 120 to 121 °C
- Cc1cccc(-c2n[nH]cc2-c2ccc(F)c(-c3ccc(N4CCOCC4)cn3)c2)n1 — lower, 88 to 90 °C
- COc1cc(C(C)C)c2c(c1)S(=O)(=O)N(CBr)C2=O — lower, 157 to 159 °C
- CCOC(=O)CCC(=O)c1cnc2c(OC)cccc2c1Nc1ccccc1C — not separable, 210 to 211 °C
- O=C(O)C(=O)N1CN(C(=O)c2c(F)cccc2F)C(=O)N(c2ccc(Oc3ccc(C(F)(F)F)cc3Cl)cc2F)C1 — lower, 67 to 72 °C
- COCCCn1c2ccc(O)cc2c2c3c(c(-c4ccccc4Cl)cc21)C(=O)NC3=O — higher, 260 to 262 °C
- COc1ccc(-c2nc(CO)c[nH]2)cc1OC1CCCC1 — lower, 188 to 190 °C
- Clc1ccc(-c2cc(C3CCN(CCc4ccccc4)CC3)n[nH]2)cc1 — lower, 169 to 171 °C
- CCOC(=O)c1nc(-c2ccc(F)cc2)c(-c2ccc(S(C)(=O)=O)cc2)s1 — lower, 173 to 174 °C
- O=C(C=Cc1cccc(Cl)c1)c1ccccc1O — lower, 108 °C
- Cc1[nH]c(=O)c2c(ccc3nc(Nc4c(Cl)cccc4Cl)n(C)c32)c1CCO — higher, > 300 °C
- O=C(CCCCc1ccccc1)Nc1ccc(C(=O)O)cc1 — higher, 227 to 230 °C
